The source made the active and inactive calls.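 How the source made its calls: active means at least 70% inhibition of the phosphatase PP5 at 50 µM; inactive means inhibition below 70% at 50 µM.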
The compounds below were run against Serine/threonine-protein phosphatase 5 (Homo sapiens) (UniProt P53041) (assay: PP5 phosphatase inhibitors at single dose, late-stage follow-up, selectivity assay for PP1 inhibitor project, biochemical, fluorescence, OMFP substrate, powder samples (AID 652224)). Settings: purified PP5c, OMFP dephosphorylation fluorescence; at 50 µM; active compounds read high.
Serine/threonine-protein phosphatase 5 (Homo sapiens), sequence (P53041 whole entry, looked up): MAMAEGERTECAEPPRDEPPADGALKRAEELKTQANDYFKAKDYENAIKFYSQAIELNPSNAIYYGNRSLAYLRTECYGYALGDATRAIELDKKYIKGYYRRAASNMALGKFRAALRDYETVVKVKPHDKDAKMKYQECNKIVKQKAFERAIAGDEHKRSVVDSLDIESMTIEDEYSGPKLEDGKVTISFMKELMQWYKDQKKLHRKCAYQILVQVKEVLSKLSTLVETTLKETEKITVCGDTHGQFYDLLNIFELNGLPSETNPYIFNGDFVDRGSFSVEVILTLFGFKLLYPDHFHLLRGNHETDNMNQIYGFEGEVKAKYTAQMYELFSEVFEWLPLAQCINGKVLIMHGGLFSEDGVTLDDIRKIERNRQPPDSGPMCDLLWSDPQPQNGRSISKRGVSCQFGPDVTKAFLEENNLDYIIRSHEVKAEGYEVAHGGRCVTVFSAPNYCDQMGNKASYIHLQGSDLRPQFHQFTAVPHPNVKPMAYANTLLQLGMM

SMILES | inhibition
COc1cccc(C(c2ccc3cccnc3c2O)N2CCN(C)CC2)n1 (stereo unspecified) | -1.09% (inactive)
Oc1c(C(c2ccccn2)N2CCNCC2)cc(Cl)c2cccnc12 (stereo unspecified) | 14.4% (inactive)
COc1ccc(C(c2ccc3cccnc3c2O)N2CCN(C)CC2)nc1 (stereo unspecified) | 48.5% (inactive)
CN1CCN(Cc2cc(Cl)c3cccnc3c2O)CC1 | 20.1% (inactive)
Cc1cccc(C(c2ccc3cccnc3c2O)N2CCN(C)CC2)n1 (stereo unspecified) | -2.26% (inactive)
CN1CCN(C(c2ccccn2)c2cc(Cl)c3cccnc3c2O)CC1 (stereo unspecified) | 75.8%
CN1CCN(C(c2ccccn2)c2cc(Cl)ccc2O)CC1 (stereo unspecified) | 4.27% (inactive)
Oc1c(C(c2ccccn2)N2CCCC2)ccc2cccnc12 (stereo unspecified) | 45.2% (inactive)
Oc1c(C(c2ccccn2)N2CCOCC2)cc(Cl)c2cccnc12 (stereo unspecified) | 72.5%
CN1CCN(C(c2ccc3cccnc3c2O)c2ncccc2C(F)(F)F)CC1 (stereo unspecified) | 29.4% (inactive)
CN1CCN(C(c2ccc(C(F)(F)F)cn2)c2ccc3cccnc3c2O)CC1 (stereo unspecified) | 61.9% (inactive)
CN1CCN(C(c2ncccn2)c2ccc3cccnc3c2O)CC1 (stereo unspecified) | -0.77% (inactive)
CCN1CCN(C(c2ccccn2)c2cc(Cl)c3cccnc3c2O)CC1 (stereo unspecified) | 67.9% (inactive)
COCOc1c(C(c2ccccn2)N2CCN(C)CC2)ccc2cccnc12 (stereo unspecified) | -6.11% (inactive)
Cc1ccc2ccc(C(c3ccccn3)N3CCN(C)CC3)c(O)c2n1 (stereo unspecified) | 24.3% (inactive)
CN1CCN(C(c2ccncc2)c2cc(Cl)c3cccnc3c2O)CC1 (stereo unspecified) | 9.09% (inactive)
Oc1c(CN2CCN(c3ccccn3)CC2)cc(Cl)c2cccnc12 | 32.4% (inactive)
Oc1c(Cc2ccccn2)ccc2cccnc12 | 27% (inactive)

SMILES | inhibition
Cc1ccnc(C(c2ccc3cccnc3c2O)N2CCN(C)CC2)c1 (stereo unspecified) | 54.8% (inactive)
CN1CCN(C(c2ccccn2)c2cc(Cl)c3ccccc3c2O)CC1 (stereo unspecified) | 12.1% (inactive)
COc1ccnc(C(c2ccc3cccnc3c2O)N2CCN(C)CC2)c1 (stereo unspecified) | 58.8% (inactive)
Oc1c(C(c2ccccn2)N2CCN(c3ccccc3F)CC2)cc(Cl)c2cccnc12 (stereo unspecified) | 27% (inactive)
CN1CCN(C(c2nccs2)c2cc(Cl)c3cccnc3c2O)CC1 (stereo unspecified) | 35% (inactive)
CN1CCN(C(c2cccnc2)c2cc(Cl)c3cccnc3c2O)CC1 (stereo unspecified) | 9.84% (inactive)
CN1CCN(C(c2ccccc2)c2cc(Cl)c3cccnc3c2O)CC1 (stereo unspecified) | 15.5% (inactive)
CC1CCN(C(c2ccccn2)c2cc(Cl)c3cccnc3c2O)CC1 (stereo unspecified) | 68.5% (inactive)
CN1CCN(C(c2ccccn2)c2ccc3cccnc3c2O)CC1 (stereo unspecified) | 49.2% (inactive)
Cc1cccnc1C(c1ccc2cccnc2c1O)N1CCN(C)CC1 (stereo unspecified) | 66.1% (inactive)
Oc1c(C(NC2CCCCC2)c2ccccn2)ccc2cccnc12 (stereo unspecified) | 36.3% (inactive)
Cc1ccc(C(c2ccc3cccnc3c2O)N2CCN(C)CC2)nc1 (stereo unspecified) | 66.2% (inactive)
Oc1c(C(c2ccccn2)N2CCC(Cc3ccccc3)CC2)cc(Cl)c2cccnc12 (stereo unspecified) | 24.6% (inactive)
CN1CCC(NC(c2ccccn2)c2ccc3cccnc3c2O)CC1 (stereo unspecified) | 9.57% (inactive)
CN1CCN(C(c2cccs2)c2cc(Cl)c3cccnc3c2O)CC1 (stereo unspecified) | 24.7% (inactive)
Oc1c(CN2CCN(c3ccccc3)CC2)cc(Cl)c2cccnc12 | 21.3% (inactive)
CCOC(c1ccccn1)c1cc(Cl)c2cccnc2c1O (stereo unspecified) | 21.5% (inactive)
CC(C)(C)OC(=O)N1CCN(C(c2ccccn2)c2cc(Cl)c3cccnc3c2O)CC1 (stereo unspecified) | 37.1% (inactive)

Reference: PubChem BioAssay AID652224 (The Scripps Research Institute Molecular Screening Center, 2013)
